Test results as given in the supplement of paper PMC9663587.

Tests used:
[1] = compound: CCN1CCN(Cc2ccc(Nc3ncc(F)c(-c4cc(F)c5nc(C)n(C(C)C)c5c4)n3)nc2)CC1; test: increase in dead-cell fraction, 72 h; higher = more death;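 further: breast cancer cell lines in 384-well plates, stained with Hoechst plus LIVE/DEAD far red dye and imaged, cells above an LDR intensity threshold counted dead, Hoechst-negative corpses included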
Flavopiridol [2] = compound: T1, CN1CC[C@H](c2c(O)cc(O)c3c(=O)cc(-c4ccccc4Cl)oc23)[C@H](O)C1 [Flavopiridol]; test: as above
YKL-5-124 = compound: C=CC(=O)Nc1ccc(C(=O)Nc2[nH]nc3c2CN(C(=O)N[C@H](CN(C)C)c2ccccc2)C3(C)C)cc1 [YKL-5-124]; test: GR value, 72 h; higher = faster growth (1 = untreated, <0 = killing);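 further: breast cancer and non-malignant breast epithelial lines, nine half-log doses, viable cells counted by Hoechst and LIVE/DEAD dye imaging versus time-zero plates and DMSO controls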
BSJ-03-123 = compound: CC(=O)c1c(C)c2cnc(Nc3ccc(N4CCN(CCOCCOCCOCCNC(=O)COc5cccc6c5C(=O)N(C5CCC(=O)NC5=O)C6=O)CC4)cn3)nc2n(C2CCCC2)c1=O [BSJ-03-123]; test: as above
[3] = compound: CC(=O)c1c(C)c2cnc(Nc3ccc(N4CCNCC4)cn3)nc2n(C2CCCC2)c1=O; test: as above
[4] = compound: CCN1CCN(Cc2ccc(Nc3ncc(F)c(-c4cc(F)c5nc(C)n(C(C)C)c5c4)n3)nc2)CC1; test: as above
Neratinib/HKI272 = compound: CCOc1cc2ncc(C#N)c(Nc3ccc(OCc4ccccn4)c(Cl)c3)c2cc1NC(=O)/C=C/CN(C)C [Neratinib/HKI272]; test: as above
[5] = compound: CCc1cnn2c(NCc3ccc[n+]([O-])c3)cc(N3CCCC[C@H]3CCO)nc12; test: as above
LEE011/Ribociclib = compound: CN(C)C(=O)c1cc2cnc(Nc3ccc(N4CCNCC4)cn3)nc2n1C1CCCC1 [LEE011/Ribociclib]; test: as above
THZ531 = compound: CN(C)C/C=C/C(=O)Nc1ccc(C(=O)N2CCC[C@@H](Nc3ncc(Cl)c(-c4c[nH]c5ccccc45)n3)C2)cc1 [THZ531]; test: as above
THZ1 = compound: CN(C)C/C=C/C(=O)Nc1ccc(C(=O)Nc2cccc(Nc3ncc(Cl)c(-c4c[nH]c5ccccc45)n3)c2)cc1 [THZ1]; test: as above
Flavopiridol [6] = compound: T1, Flavopiridol; test: as above

UACC893
increase in dead-cell fraction ([1]; 0.001 µM): -0.001
increase in dead-cell fraction ([1]; 0.003162 µM): 0.0022
increase in dead-cell fraction ([1]; 0.01 µM): 0.0063
increase in dead-cell fraction ([1]; 0.03162 µM): 0.0037
increase in dead-cell fraction ([1]; 0.1 µM): 0.0039
increase in dead-cell fraction ([1]; 0.3162 µM): 0.0024
increase in dead-cell fraction ([1]; 1 µM): 0.0009
increase in dead-cell fraction ([1]; 3.162 µM): -0.0005
increase in dead-cell fraction ([1]; 10 µM): 0.0324
increase in dead-cell fraction (Flavopiridol [2]; 0.0001 µM): -0.0013
increase in dead-cell fraction (Flavopiridol [2]; 0.0003162 µM): -0.0009
increase in dead-cell fraction (Flavopiridol [2]; 0.001 µM): 0.0052
increase in dead-cell fraction (Flavopiridol [2]; 0.003162 µM): -0.0042
increase in dead-cell fraction (Flavopiridol [2]; 0.01 µM): -0.0006
increase in dead-cell fraction (Flavopiridol [2]; 0.03162 µM): 0.0011
increase in dead-cell fraction (Flavopiridol [2]; 0.1 µM): 0.0012
increase in dead-cell fraction (Flavopiridol [2]; 0.3162 µM): 0.013
increase in dead-cell fraction (Flavopiridol [2]; 1 µM): 0.132
GR value (YKL-5-124; 0.001 µM): 0.472 GR
GR value (YKL-5-124; 0.003162 µM): 0.473 GR
GR value (YKL-5-124; 0.01 µM): 0.363 GR
GR value (YKL-5-124; 0.03162 µM): 0.342 GR
GR value (YKL-5-124; 0.1 µM): 0.215 GR
GR value (YKL-5-124; 0.3162 µM): 0.246 GR
GR value (YKL-5-124; 1 µM): 0.219 GR
GR value (YKL-5-124; 3.162 µM): 0.119 GR
GR value (YKL-5-124; 10 µM): -0.629 GR
GR value (BSJ-03-123; 0.001 µM): 0.933 GR
GR value (BSJ-03-123; 0.003162 µM): 0.792 GR
GR value (BSJ-03-123; 0.01 µM): 0.726 GR
GR value (BSJ-03-123; 0.03162 µM): 0.878 GR
GR value (BSJ-03-123; 0.1 µM): 0.644 GR
GR value (BSJ-03-123; 0.3162 µM): 0.502 GR
GR value (BSJ-03-123; 1 µM): 0.538 GR
GR value (BSJ-03-123; 3.162 µM): 0.498 GR
GR value (BSJ-03-123; 10 µM): 0.283 GR
GR value ([3]; 0.0003162 µM): 0.92 GR
GR value ([3]; 0.001 µM): 0.914 GR
GR value ([3]; 0.003162 µM): 0.79 GR
GR value ([3]; 0.01 µM): 0.671 GR
GR value ([3]; 0.03162 µM): 0.422 GR
GR value ([3]; 0.1 µM): 0.406 GR
GR value ([3]; 0.3162 µM): 0.366 GR
GR value ([3]; 1 µM): 0.358 GR
GR value ([3]; 3.162 µM): 0.355 GR
GR value ([4]; 0.001 µM): 0.682 GR
GR value ([4]; 0.003162 µM): 0.508 GR
GR value ([4]; 0.01 µM): 0.42 GR
GR value ([4]; 0.03162 µM): 0.344 GR
GR value ([4]; 0.1 µM): 0.305 GR
GR value ([4]; 0.3162 µM): 0.272 GR
GR value ([4]; 1 µM): 0.262 GR
GR value ([4]; 3.162 µM): 0.241 GR
GR value ([4]; 10 µM): -0.088 GR
GR value (Neratinib/HKI272; 0.0003162 µM): 1.06 GR
GR value (Neratinib/HKI272; 0.001 µM): 0.922 GR
GR value (Neratinib/HKI272; 0.003162 µM): 0.372 GR
GR value (Neratinib/HKI272; 0.01 µM): -0.192 GR
GR value (Neratinib/HKI272; 0.03162 µM): -0.409 GR
GR value (Neratinib/HKI272; 0.1 µM): -0.604 GR
GR value (Neratinib/HKI272; 0.3162 µM): -0.688 GR
GR value (Neratinib/HKI272; 1 µM): -0.784 GR
GR value (Neratinib/HKI272; 3.162 µM): -0.908 GR
GR value ([5]; 0.0001 µM): 0.963 GR
GR value ([5]; 0.0003162 µM): 0.894 GR
GR value ([5]; 0.001 µM): 1 GR
GR value ([5]; 0.003162 µM): 0.997 GR
GR value ([5]; 0.01 µM): 0.865 GR
GR value ([5]; 0.03162 µM): -0.169 GR
GR value ([5]; 0.1 µM): -0.503 GR
GR value ([5]; 0.3162 µM): -0.612 GR
GR value ([5]; 1 µM): -0.649 GR
GR value (LEE011/Ribociclib; 0.001 µM): 0.564 GR
GR value (LEE011/Ribociclib; 0.003162 µM): 0.501 GR
GR value (LEE011/Ribociclib; 0.01 µM): 0.497 GR
GR value (LEE011/Ribociclib; 0.03162 µM): 0.461 GR
GR value (LEE011/Ribociclib; 0.1 µM): 0.494 GR
GR value (LEE011/Ribociclib; 0.3162 µM): 0.422 GR
GR value (LEE011/Ribociclib; 1 µM): 0.473 GR
GR value (LEE011/Ribociclib; 3.162 µM): 0.48 GR
GR value (LEE011/Ribociclib; 10 µM): 0.484 GR
GR value (THZ531; 0.0001 µM): 1.05 GR
GR value (THZ531; 0.0003162 µM): 1.05 GR
GR value (THZ531; 0.001 µM): 0.907 GR
GR value (THZ531; 0.003162 µM): 1.06 GR
GR value (THZ531; 0.01 µM): 1.08 GR
GR value (THZ531; 0.03162 µM): 0.743 GR
GR value (THZ531; 0.1 µM): -0.298 GR
GR value (THZ531; 0.3162 µM): -0.396 GR
GR value (THZ531; 1 µM): -0.421 GR
GR value (THZ1; 0.0001 µM): 0.991 GR
GR value (THZ1; 0.0003162 µM): 1.12 GR
GR value (THZ1; 0.001 µM): 1.07 GR
GR value (THZ1; 0.003162 µM): 0.882 GR
GR value (THZ1; 0.01 µM): 0.669 GR
GR value (THZ1; 0.03162 µM): 0.149 GR
GR value (THZ1; 0.1 µM): -0.241 GR
GR value (THZ1; 0.3162 µM): -0.397 GR
GR value (THZ1; 1 µM): -0.517 GR
GR value (Flavopiridol [6]; 0.0001 µM): 1.02 GR
GR value (Flavopiridol [6]; 0.0003162 µM): 0.977 GR
GR value (Flavopiridol [6]; 0.001 µM): 0.945 GR
GR value (Flavopiridol [6]; 0.003162 µM): 0.821 GR
GR value (Flavopiridol [6]; 0.01 µM): 0.866 GR
GR value (Flavopiridol [6]; 0.03162 µM): 0.822 GR
GR value (Flavopiridol [6]; 0.1 µM): 0.609 GR
GR value (Flavopiridol [6]; 0.3162 µM): 0.0303 GR
GR value (Flavopiridol [6]; 1 µM): -0.465 GR
